Assay results taken from US11981674B1, “7-isopropyl 1-ethyl/methyl 3-(substituted benzoyl)-2-substituted indolizine-1,7-dicarboxylates as larvicidal agents” (KING FAISAL UNIVERSITY, priority 2023, dated 2024).
Like-named read-outs stand apart in the source and are kept apart here.

Test system: Anopheles arabiensis
Assay: Larvicidal screening (WHO protocol), 3rd instar larvae
Type: in vivo
Settings: for mortality at 4 µg/mL: Anopheles arabiensis
Protocol: Anopheles arabiensis was used in the study according to the protocol described by WHO (1975) guidelines in an insectary simulating the temperature (27.5° C.), humidity (70%), and lighting (12/12) of a malaria-endemic environment. One mL of test compound (1 mg/mL) was added to 1 mL of acetone and followed by […] of distilled water to obtain a final concentration of 4 μg/mL. Thirty individuals of 3rd instar larvae were introduced into a container. Negative control was set up using the solvent (acetone) and distilled water, and a positive control included Temephos, which is an active emulsified organophosphate larvicidal used by malaria control programs. Larval mortality was examined for each container separately for 24 h and fed specially made cat food that contained less oil/fat content. The percentage of mortality was determined relative to the initial number of larvae exposed.
Differences in larval mortality between treatments were assessed with generalized linear models using a quasi-Poisson link function. Anopheles arabiensis mortality was the dependent variable, while fixed effects were test compounds and observation period (24 and 48 h). A p-value <0.05 was considered statistically significant. Throughout the text, the results are presented as the adjusted mean±the standard error.

[1] = 24 h, read-out: larval mortality rate in 24 hours
[2] = 48 h, read-out: larval mortality rate in 48 hours

| Compound | Mortality 24 h (Anopheles arabiensis larvae exposed 24 h, 4 μg/mL, adjusted mean ± standard error) | Mortality 48 h (Anopheles arabiensis larvae exposed 48 h, 4 μg/mL, adjusted mean ± standard error) | larval mortality rate in 24 hours (in 24 hours) | larval mortality rate in 48 hours (in 48 hours) | mortality at 4 µg/mL (24 h, read-out: Mortality 24 h) | mortality at 4 µg/mL [1] | mortality at 4 µg/mL (48 h, read-out: Mortality 48 h) | mortality at 4 µg/mL [2] |
| --- | --- | --- | --- | --- | --- | --- | --- | --- |
| 1-Ethyl 7-isopropyl 3-(3,5-bis(trifluoromethyl)benzoyl)indolizine-1,7-dicarboxylate [Compound 3m] | 93.45 ± 1.29% | 96.12 ± 1.90% | 93.45±1.29 | 96.12±1.90 | – | – | – | – |
| COC(=O)c1c(C(=O)OC)c2cc(C(=O)OC(C)C)ccn2c1C(=O)c1ccccc1 [Compound 3a, 7-Isopropyl 1,2-dimethyl 3-benzoylindolizine-1,2,7-tricarboxylate] | – | – | – | – | 39.2 ± 1.64% | 39.2 ± 1.64% | 45.5 ± 2.65% | 45.5 ± 2.65% |
| CCOC(=O)c1cc(C(=O)c2ccccc2)n2ccc(C(=O)OC(C)C)cc12 [Compound 3b, 1-Ethyl 7-isopropyl 3-benzoylindolizine-1,7-dicarboxylate] | – | – | – | – | 32.6 ± 2.44% | 32.6 ± 2.44% | 36.8 ± 1.79% | 36.8 ± 1.79% |
| COC(=O)c1c(C(=O)OC)c2cc(C(=O)OC(C)C)ccn2c1C(=O)c1ccc(F)cc1 [Compound 3c, 7-Isopropyl 1,2-dimethyl 3-(4-fluorobenzoyl)indolizine-1,2,7-tricarboxylate] | – | – | – | – | 79.1 ± 1.65% | 79.1 ± 1.65% | 82.3 ± 2.71% | 82.3 ± 2.71% |
| CCOC(=O)c1cc(C(=O)c2ccc(F)cc2)n2ccc(C(=O)OC(C)C)cc12 [Compound 3d, 1-Ethyl 7-isopropyl 3-(4-fluorobenzoyl)indolizine-1,7-dicarboxylate] | – | – | – | – | 87.3 ± 1.64% | 87.3 ± 1.64% | 91.2 ± 3.18% | 91.2 ± 3.18% |
| COC(=O)c1c(C(=O)OC)c2cc(C(=O)OC(C)C)ccn2c1C(=O)c1ccc(Cl)cc1 [Compound 3e, 7-Isopropyl 1,2-dimethyl 3-(4-chlorobenzoyl)indolizine-1,2,7-tricarboxylate] | – | – | – | – | 67.9 ± 2.91% | 67.9 ± 2.91% | 70.9 ± 1.67% | 70.9 ± 1.67% |
| CCOC(=O)c1cc(C(=O)c2ccc(Cl)cc2)n2ccc(C(=O)OC(C)C)cc12 [Compound 3f, 1-Ethyl 7-isopropyl 3-(4-chlorobenzoyl)indolizine-1,7-dicarboxylate] | – | – | – | – | 66 ± 2.94% | 66 ± 2.94% | 69.2 ± 2.47% | 69.2 ± 2.47% |
| COC(=O)c1c(C(=O)OC)c2cc(C(=O)OC(C)C)ccn2c1C(=O)c1ccc(Br)cc1 [Compound 3g, 7-Isopropyl 1,2-dimethyl 3-(4-bromobenzoyl)indolizine-1,2,7-tricarboxylate] | – | – | – | – | 89.4 ± 2.42% | 89.4 ± 2.42% | 91.1 ± 2.21% | 91.1 ± 2.21% |
| CCOC(=O)c1cc(C(=O)c2ccc(Br)cc2)n2ccc(C(=O)OC(C)C)cc12 [Compound 3h, 1-Ethyl 7-isopropyl 3-(4-bromobenzoyl)indolizine-1,7-dicarboxylate] | – | – | – | – | 82.3 ± 1.23% | 82.3 ± 1.23% | 86.7 ± 1.39% | 86.7 ± 1.39% |
| COC(=O)c1c(C(=O)OC)c2cc(C(=O)OC(C)C)ccn2c1C(=O)c1ccc(C#N)cc1 [Compound 3i, 7-isopropyl 1,2-dimethyl 3-(4-cyanobenzoyl)indolizine-1,2,7-tricarboxylate] | – | – | – | – | 62.4 ± 1.8% | 62.4 ± 1.8% | 63.8 ± 1.9% | 63.8 ± 1.9% |
| CCOC(=O)c1cc(C(=O)c2ccc(C#N)cc2)n2ccc(C(=O)OC(C)C)cc12 [Compound 3j, 1-Ethyl 7-isopropyl 3-(4-cyanobenzoyl)indolizine-1,7-dicarboxylate] | – | – | – | – | 61.6 ± 1.23% | 61.6 ± 1.23% | 66.1 ± 2.62% | 66.1 ± 2.62% |
| COC(=O)c1c(C(=O)OC)c2cc(C(=O)OC(C)C)ccn2c1C(=O)c1ccc(C)cc1 [Compound 3k, 7-Isopropyl 1,2-dimethyl 3-(4-methylbenzoyl)indolizine-1,2,7-tricarboxylate] | – | – | – | – | 57.5 ± 1.32% | 57.5 ± 1.32% | 60 ± 1.87% | 60 ± 1.87% |
| COC(=O)c1c(C(=O)OC)c2cc(C(=O)OC(C)C)ccn2c1C(=O)c1cc(C(F)(F)F)cc(C(F)(F)F)c1 [Compound 3l, 7-Isopropyl 1,2-dimethyl 3-(3,5-bis(trifluoromethyl)benzoyl)indolizine-1,2,7-tricarboxylate] | – | – | – | – | 97.2 ± 2.3% | 97.2 ± 2.3% | 99.5 ± 1.49% | 99.5 ± 1.49% |
| COP(=S)(OC)Oc1ccc(Sc2ccc(OP(=S)(OC)OC)cc2)cc1 [Temephos, reference compound] | – | – | – | – | 98.3% | – | 100% | – |
